The target of assay [1] is T1, Thielavia terrestris ATCC 20627 glucoamylase, wild type, recombinant (expressed in Aspergillus oryzae), SEQ ID NO:2 (Thermothielavioides terrestris, UniProt G2QUZ8).
T1 construct: N-terminus identical to native enzyme
Briefly: Catalytic constants of recombinant Thielavia terrestris glucoamylase, maltotriose hydrolysis (glucose oxidase assay). It is filed as biochemical.
Procedure: The glucose-releasing activity of glucoamylase (on maltooligosaccharide) was measured using a glucose oxidase assay kit (Sigma Chemical Co., St. Louis, Mo.) according to the manufacturer's instructions. […] To obtain the correct glucoamylase activity, glucoamylase samples were subjected to ultrafiltration and the resulting retentate (glucoamylase enriched) and filtrate (containing no glucoamylase) were assayed by the glucose oxidase kit. The background substrate oxidation was then subtracted from the data obtained for the glucoamylase samples. Another glucoamylase activity assay comprised of glucoamylase hydrolysis on maltose and glucose detection by a Glucose GOD-Perid kit (Boehringer Mannheim, Indianapolis, Ind.) according to the manufacturer's instructions. In this assay, 900 µl of 50 mM sodium acetate, pH 4.3, containing 1% maltose, pre-incubated for 5 minutes at 37° C., was mixed with 20 μl of glucoamylase solution in 50 mM sodium acetate pH 4.3. After a 10 minute incubation, 80 μl of 1 M NaOH was added to inactivate glucoamylase and the mixture was chilled on ice to prevent the non-enzymatic, basic hydrolysis of maltose. A 20 μl volume of the solution was then mixed with 200 μl of GOD-Perid solution. After a 30 minute incubation at room temperature, the absorbance at 650 nm was measured. The Prism program (from GraphPad, San Diego, Calif.) was used to calculate Km and Vmax by non-linear regression. The parameter kcat (mole glucose produced per mole glucoamylase per min) was calculated by kcat ={(Vmax +1.01)/0.30}/[enzyme], where the units were 0.001 Abs /minute for Vmax and μM for [enzyme]. The 124 mM^-1 cm^-1 value, calculated from the amount of tyrosine, phenylalanine, and cysteine as deduced from the DNA sequence, was used for the extinction coefficient of Thielavia terrestris glucoamylase at 280 nm.
Then 50 μl of Sigma's GO glucose oxidase assay reagent and 25 μl of H2 O were added and the absorption change was monitored at 490 nm.
The temperature-activity profile was measured in quadruplicate at 4, 22, 30, 37, 50, 60, 70, and 80° C. […] After 30 minutes, 5 μl Thielavia terrestris glucoamylase stock (0.11 mg/ml) was added and the solution was kept at the same temperature. After 20 minutes, the solutions were chilled (in ice-water) and briefly centrifuged (in 0.7-ml microcentrifuge tubes). Then 25 μl of these solutions were subjected to the glucoamylase assay by mixing with 50 μl of glucose oxidase reagent and 25 μl of H2 O as described above.

Assay [2] concerns Aspergillus spp K-27 glucoamylase. To be noted: Abe et al., 1990, cited from earlier work.
Assay [3] relates to Trichoderma reesei glucoamylase. The following applies: Fagerstrom and Kalkkinen, 1995, cited from earlier work.
Assay [4] has as its target Aspergillus awamori glucoamylase (Aspergillus awamori, UniProt P69327). To be noted: Sierks and Svensson, 1993, cited from earlier work.

Here are results for one compound from patent US6309872A, “Polypeptides having glucoamylase activity and nucleic acids encoding same” (Novozymes Biotech, Inc, priority 2000, dated 2001).

T1 sequence (G2QUZ8 20-638): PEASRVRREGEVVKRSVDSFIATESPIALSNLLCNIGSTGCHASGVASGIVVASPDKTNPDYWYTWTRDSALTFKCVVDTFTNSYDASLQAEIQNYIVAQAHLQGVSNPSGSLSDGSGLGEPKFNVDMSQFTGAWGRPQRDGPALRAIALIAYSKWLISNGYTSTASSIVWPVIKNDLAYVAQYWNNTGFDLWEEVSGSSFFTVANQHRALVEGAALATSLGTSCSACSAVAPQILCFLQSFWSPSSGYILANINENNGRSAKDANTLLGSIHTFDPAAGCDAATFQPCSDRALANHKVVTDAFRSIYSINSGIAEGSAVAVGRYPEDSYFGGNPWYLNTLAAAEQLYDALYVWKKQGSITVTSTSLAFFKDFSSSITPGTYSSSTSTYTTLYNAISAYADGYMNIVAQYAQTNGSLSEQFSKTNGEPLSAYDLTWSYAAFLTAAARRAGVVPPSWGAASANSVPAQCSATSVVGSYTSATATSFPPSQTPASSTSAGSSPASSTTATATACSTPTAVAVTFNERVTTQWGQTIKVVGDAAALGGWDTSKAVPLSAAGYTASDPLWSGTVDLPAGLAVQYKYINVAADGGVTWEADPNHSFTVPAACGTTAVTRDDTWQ
Aspergillus awamori glucoamylase, sequence (P69327 25-640): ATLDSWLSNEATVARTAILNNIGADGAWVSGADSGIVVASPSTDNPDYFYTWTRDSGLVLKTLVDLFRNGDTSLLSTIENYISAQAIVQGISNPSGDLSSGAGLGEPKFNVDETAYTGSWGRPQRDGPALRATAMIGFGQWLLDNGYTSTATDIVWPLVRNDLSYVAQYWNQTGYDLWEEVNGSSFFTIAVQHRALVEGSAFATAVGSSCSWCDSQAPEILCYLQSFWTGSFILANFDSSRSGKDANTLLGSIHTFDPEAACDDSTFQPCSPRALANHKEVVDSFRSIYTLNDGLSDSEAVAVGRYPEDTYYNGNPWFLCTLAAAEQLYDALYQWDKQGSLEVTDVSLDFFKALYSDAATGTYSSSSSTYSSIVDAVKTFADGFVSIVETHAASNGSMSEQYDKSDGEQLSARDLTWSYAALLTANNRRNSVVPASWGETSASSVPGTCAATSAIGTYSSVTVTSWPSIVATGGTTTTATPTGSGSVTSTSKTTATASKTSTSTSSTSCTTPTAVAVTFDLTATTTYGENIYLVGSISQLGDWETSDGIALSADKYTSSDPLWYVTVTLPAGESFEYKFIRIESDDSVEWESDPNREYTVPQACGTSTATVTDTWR

In the case of `OC[C@H]1O[C@H](O[C@H]2[C@H](O)[C@@H](O)[C@@H](O[C@H]3[C@H](O)[C@@H](O)C(O)O[C@@H]3CO)O[C@@H]2CO)[C@H](O)[C@@H](O)[C@@H]1O` (stereo partly shown) [maltotriose], the Km in assay [1] (at pH 4 from 4° C. to 80° C.) is < 1000 µM; in assay [1] (from pH 3 to 11 at 20° C.), < 1000 µM; in assay [2] (read-out: Km for maltotriose), 450 µM; in assay [3] (read-out: Km for maltotriose) it was 500 µM; in assay [4] (read-out: Km for maltotriose), 730 µM. Further, the kcat in assay [1] (at pH 4 from 40° C. to 70° C.) was > 10^5 /min; in assay [1] (from pH 3 to 7 at 20° C.), > 10^5 /min; in assay [2] (maltotriose) it was 65 s⁻¹; in assay [3] (maltotriose) it was 20 s⁻¹; in assay [4] (maltotriose), 61.67 s⁻¹.
